Results: EP0282309A2, “Azole-aminomethylene bisphosphonic acid derivatives” (YAMANOUCHI PHARMACEUTICAL CO. LTD., priority 1987, dated 1988)

Tested on: PTH-induced hypercalcemia rats
Test: Hypercalcemia inhibiting effect: serum Ca++ lowering in PTH-induced hypercalcemia rats
Assay type: in vivo, Wistar male rats
Conditions: blood 45 min after PTH, mean ± S.E., N=5
Protocol: Typical effective ingredients according to the present invention were administered to parathyroid hormone (hereinafter referred to as "PTH")-induced hypercalcemia rats and, for each ingredient, the serum calcium level lowering effect was estimated. Test method: Human 1 to 34 PTH (obtained from the Peptide Institute) was intravenously administered at a dose of 30 µg/kg to 5-week-old Wistar male rats fasted for 20 hours. For the administration, PTH was dissolved in physiological saline containing 0.1% BSA (bovine serum albumin) and the solution was given to the rats in an amount of 5 ml/kg. The normal control group was given 0.1% BSA-containing physiological saline alone in the same manner. […] The blood samples were immediately centrifuged at 4°C, and 3,000 rpm (revolutions per minute) for 10 minutes. The thus-separated sera were measured for ionic calcium (Ca⁺⁺) concentration by means of a Ca⁺⁺ meter (Sera 250; Horiba Seisakusho).
The compounds according to the invention were dissolved, using sodium hydroxide and hydrochloric acid, in physiological saline (pH 7.4), for subcutaneous administration, in such amounts that the dose amounted to 2 ml/kg, and, for oral administration, in distilled water (pH 7.4) so that the dose amounted to 5 ml/kg. They were administered 24 or 72 hours before PTH administration. The normal control group and the control group were given physiological saline or distilled water in the same manner.
The results for each group were expressed in terms of mean ±S.E. (standard error) and comparison was made among the groups by testing by one-way analysis of variance. The significance level was taken at 5%.
The compound of Example 6 was administered 24 hours before PTH administration while other compounds were administered 72 hours before PTH administration.

[1] = oral administration, 10 mg/kg, 72 hours before PTH
[2] = oral administration, 30 mg/kg, 72 hours before PTH
[3] = oral administration, 100 mg/kg, 72 hours before PTH
[4] = subcutaneous administration, 0.1 mg/kg, 72 hours before PTH
[5] = subcutaneous administration, 0.3 mg/kg, 72 hours before PTH
[6] = subcutaneous administration, 1.0 mg/kg, 72 hours before PTH

`Cc1cnc(NC(P(=O)(O)O)P(=O)(O)O)s1` [Example 20, [(5-Methyl-2-thiazolyl)amino]methylene bis(phosphonic acid)] was tested, and the “Serum Ca^++” value [1] was 1.39 ± 0.01 mmol/L, the “Serum Ca^++” value [2] was 1.25 ± 0.01 mmol/L and the “Serum Ca^++” value [3] was 1.12 ± 0.0 mmol/L. The “Serum Ca^++” value [4] was 0.95 ± 0.01 m moles/liter, the “Serum Ca^++” value [5] was 0.93 ± 0.03 m moles/liter and the “Serum Ca^++” value [6] was 0.92 ± 0.03 m moles/liter.

In the case of `O=P(O)(O)C(Nc1nccs1)P(=O)(O)O` [Example 6, [(2-thiazolyl)amino]methylenebis(phosphonic acid)], the “Serum Ca^++” value (oral administration, 10 mg/kg, 24 hours before PTH) is reported as 1.58 ± 0.03 mmol/L, the “Serum Ca^++” value (oral administration, 30 mg/kg, 24 hours before PTH) is reported as 1.54 ± 0.02 mmol/L and the “Serum Ca^++” value (oral administration, 100 mg/kg, 24 hours before PTH) is reported as 1.45 ± 0.03 mmol/L. The “Serum Ca^++” value (subcutaneous administration, 0.1 mg/kg, 24 hours before PTH) was 1.49 ± 0.01 mmol/L, the “Serum Ca^++” value (subcutaneous administration, 0.3 mg/kg, 24 hours before PTH) was 1.45 ± 0.01 mmol/L and the “Serum Ca^++” value (subcutaneous administration, 1.0 mg/kg, 24 hours before PTH) was 1.41 ± 0.01 mmol/L.

With `Cc1nc(NC(P(=O)(O)O)P(=O)(O)O)sc1C` [Example 21, [(4,5-Dimethyl-2-thiazolyl)amino]methylene bis(phosphonic acid)] the “Serum Ca^++” value [4] was 1.48 ± 0.01 mmol/L, the “Serum Ca^++” value [5] was 1.40 ± 0.01 mmol/L and the “Serum Ca^++” value [6] was 1.30 ± 0.02 mmol/L.

In the case of `Cc1cnc(NC(P(=O)(O)O)P(=O)(O)O)o1` [Example 10, [(5-methyl-2-oxazolyl)amino]methylene bis(phosphonic acid)], the “Serum Ca^++” value [1] is reported as 1.42 ± 0.03 m moles/liter, the “Serum Ca^++” value [2] is reported as 1.27 ± 0.03 m moles/liter and the “Serum Ca^++” value [3] is reported as 1.15 ± 0.04 m moles/liter. For the same molecule, the “Serum Ca^++” value (subcutaneous administration, 0.03 mg/kg, 72 hours before PTH (30 µg/kg i.v.)) was 1.46 ± 0.01 m moles/liter and the “Serum Ca^++” value [4] was 1.29 ± 0.01 m moles/liter.
